Assay results: patent publication US10457707B2, “Substituted urea depsipeptide analogs as activators of the CLPP endopeptidase” (priority 2015, dated 2019)
Converted amounts (≈) assume the structure as drawn. Where two headings read alike, the source gives them in different places. *1 amine or outer side, *2 acyl side, *3 side chain or, on linkers, in order; H or OH if unused. Where a SMILES comes first, the peptide text is derived from it. Bridges are numbered along the chain shown (N, C = ends). [ ]: non-standard residue; d: D form. The star is where a group is joined. ξ: configuration not given here. Phe(3,5-F2) = N[C@@H](Cc1cc(F)cc(F)c1)C(=O)O; NH(4-OCF3-phenyl) = FC(F)(F)Oc1ccc(N*)cc1; Morpholine(3S-CO) = O=C(O)[C@@H]1COCCN1; Pro(4S-Me) = C[C@@H]1CN[C@H](C(=O)O)C1; Pro(4R-Me) = C[C@H]1CN[C@H](C(=O)O)C1; NMeaThr = CN[C@H](C(=O)O)[C@H](C)O; Hyp = O=C(O)[C@@H]1C[C@@H](O)CN1; NH(4-Et-phenyl) = CCc1ccc(N*)cc1; NH(4-Me-phenyl) = Cc1ccc(N*)cc1; aThr = C[C@H](O)[C@H](N)C(=O)O; NMeA = CN[C@@H](C)C(=O)O; CO = O=C([*:1])[*:2]; ξP = O=C(O)C1CCCN1

Tests used:
Type in all cases: cell-based
[1] = system: Staphylococcus aureus, ATCC 29213; assay: Minimal inhibitory concentration assay (microbroth dilution); details: ATCC29213, read-out: Minimal Inhibitory Concentrations S. aureus ATCC 29213
In short: (§1)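 MIC is the lowest concentration stopping visible growth after overnight aerobic culture at 37 °C, per CLSI microbroth dilution (about 10^5 cfu/mL; two-fold series, top final 200 μM). ClpP-inactivated S. aureus USA 300 tested alongside parent strain to probe ClpP-mediated killing.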

[2] = system: Bacillus subtilis, ATCC 23857; assay: as above
In short: as §1

[3] = system: Staphylococcus aureus, NRS70; assay: as above
In short: as §1

[4] = Cytotoxicity assay (CellTiter-Glo cell viability, 72 hours); details: African green monkey
In short: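 Viability measured by CellTiter-Glo luminescence after 72-hour compound exposure (serial dilutions, DMSO control) of Vero monolayers seeded at 5000 cells/well in 10% FBS DMEM. IC50 values are the range of two biologically independent experiments, each run in duplicate.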

[5] = system: Streptococcus pyogenes, ATCC 700294; assay: Minimal inhibitory concentration assay (microbroth dilution)
In short: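 Plates with two-fold compound dilution series in broth were incubated overnight, aerobically, at 37° C, following CLSI microdilution guidance.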

[6] = Bacillus subtilis, ATCC23857; read-out: Minimal Inhibitory Concentrations B. subtilis ATCC 23857
[7] = Staphylococcus aureus, NRS70; read-out: Minimal Inhibitory Concentrations S. aureus NRS70
[8] = Streptococcus pyogenes, ATCC700294; read-out: Minimal Inhibitory Concentrations S. pyogenes ATCC 700294
[9] = Bacillus subtilis, ATCC23857, read-out: Minimal Inhibitory Concentrations B. subtilis ATCC 23857
[10] = Staphylococcus aureus, NRS70, read-out: Minimal Inhibitory Concentrations S. aureus NRS70
[11] = Vero cells, 72 hours, growth inhibition, read-out: Cytotoxicity IC50
[12] = Streptococcus pyogenes, ATCC700294, read-out: Minimal Inhibitory Concentrations S. pyogenes ATCC 700294

Row | Structure (SMILES) | MIC [1] | MIC [2, 6] | MIC [3, 7] | IC50 at 72 h [4] | MIC [5, 8] | MIC [2, 9] | MIC [3, 10] | IC50 at 72 h [4, 11] | MIC [5, 12] | MIC ([2]; B. subtilis ATCC 23857; read-out: Minimal Inhibitory Concentrations B. subtilis ATCC 23857)
1 | C[C@H]1C[C@H]2C(=O)O[C@@H](C)[C@H](NC(=O)[C@H](Cc3cc(F)cc(F)c3)NC(=O)Nc3ccc(OC(F)(F)F)cc3)C(=O)N3CCC[C@H]3C(=O)N3CCOC[C@H]3C(=O)N[C@@H](C)C(=O)N2C1 [Compound 201, (S)-3-(3,5-difluorophenyl)-2-(3-(4-(trifluoromethoxy)phenyl)ureido)-N-((6aS,12S,13S,15aS,17S,21S,23aS)-13,17,21-trimethyl-6,11,15,20,23-pentaoxooctadecahydro-6H,11H,15H-[1,4]oxazino[3,4-i]dipyrrolo[2,1-c:2′,1′-l][1]oxa[4,7,10,13]tetraazacyclohexadecin-12-yl)propanamide] ({NH(4-OCF3-phenyl)-CO}-[Phe(3,5-F2)][aThr]P[Morpholine(3S-CO)]A[Pro(4S-Me)]; ester 2-C) | 0.049 µM (≈ 0.0431 µg/mL) | 0.024 µM (≈ 0.0211 µg/mL) | 0.024 µM (≈ 0.0211 µg/mL) | 26 ± 2.6 µM | 0.098 µM (≈ 0.0862 µg/mL) |  |  |  |  | 
2 | Cc1ccc(NC(=O)N[C@@H](Cc2cc(F)cc(F)c2)C(=O)N[C@@H]2C(=O)N3CCC[C@H]3C(=O)N(C)[C@@H]([C@H](C)O)C(=O)N[C@@H](C)C(=O)N3C[C@@H](C)C[C@H]3C(=O)O[C@H]2C)cc1 [Compound 202, (S)-3-(3,5-difluorophenyl)-N-((2S,6S,9S,11aS,17S,18S,20aS)-9-((S)-1-hydroxyethyl)-2,6,10,18-tetramethyl-5,8,11,16,20-pentaoxohexadecahydro-1H,5H,16H-dipyrrolo[2,1-c:2′,1′-L][1]oxa[4,7,10,13]tetraazacyclohexadecin-17-yl)-2-(3-(p-tolyl)ureido)propanamide] ({NH(4-Me-phenyl)-CO}-[Phe(3,5-F2)][aThr]P[NMeaThr]A[Pro(4S-Me)]; ester 2-C) | 0.195 µM (≈ 0.158 µg/mL) |  |  |  |  | 0.195 µM (≈ 0.158 µg/mL) | 0.098 µM (≈ 0.0796 µg/mL) | 55.7 ± 3.6 µM | 0.391 µM (≈ 0.317 µg/mL) | 
3 | C[C@H]1C[C@H]2C(=O)O[C@@H](C)[C@H](NC(=O)[C@H](Cc3cc(F)cc(F)c3)NC(=O)Nc3ccc(OC(F)(F)F)cc3)C(=O)N3CCC[C@H]3C(=O)N(C)[C@@H]([C@H](C)O)C(=O)N[C@@H](C)C(=O)N2C1 [Compound 203, (S)-3-(3,5-difluorophenyl)-N-((2S,6S,9S,11aS,17S,18S,20aS)-9-((S)-1-hydroxyethyl)-2,6,10,18-tetramethyl-5,8,11,16,20-pentaoxohexadecahydro-1H,5H,16H-dipyrrolo[2,1-c:2′,1′-l][1]oxa[4,7,10,13]tetraazacyclohexadecin-17-yl)-2-(3-(4-(trifluoromethoxy)phenyl)ureido)propanamide] ({NH(4-OCF3-phenyl)-CO}-[Phe(3,5-F2)][aThr]P[NMeaThr]A[Pro(4S-Me)]; ester 2-C) | 0.098 µM (≈ 0.0864 µg/mL) | 0.098 µM (≈ 0.0864 µg/mL) | 0.049 µM (≈ 0.0432 µg/mL) | 25.4 ± 1.8 µM | 0.195 µM (≈ 0.172 µg/mL) |  |  |  |  | 
4 | CCc1ccc(NC(=O)N[C@@H](Cc2cc(F)cc(F)c2)C(=O)N[C@@H]2C(=O)N3CCC[C@H]3C(=O)N(C)[C@@H]([C@H](C)O)C(=O)N[C@@H](C)C(=O)N3C[C@@H](C)C[C@H]3C(=O)O[C@H]2C)cc1 [Compound 204, (S)-3-(3,5-difluorophenyl)-2-(3-(4-ethylphenyl)ureido)-N-((2S,6S,9S,11aS,17S,18S,20aS)-9-((S)-1-hydroxyethyl)-2,6,10,18-tetramethyl-5,8,11,16,20-pentaoxohexadecahydro-1H,5H,16H-dipyrrolo[2,1-c:2′,1′-l][1]oxa[4,7,10,13]tetraazacyclohexadecin-17-yl)propanamide] ({NH(4-Et-phenyl)-CO}-[Phe(3,5-F2)][aThr]P[NMeaThr]A[Pro(4S-Me)]; ester 2-C) | 0.098 µM (≈ 0.0809 µg/mL) | 0.049 µM (≈ 0.0405 µg/mL) | 0.098 µM (≈ 0.0809 µg/mL) | 33.8 ± 1.6 µM | 0.098 µM (≈ 0.0809 µg/mL) |  |  |  |  | 
5 | C[C@@H]1C[C@H]2C(=O)OC[C@H](NC(=O)[C@H](Cc3ccccc3)NC(=O)Nc3ccc(OC(F)(F)F)cc3)C(=O)N3CCC[C@H]3C(=O)N3CCCC[C@H]3C(=O)N[C@@H](C)C(=O)N2C1 [Compound 205] | 0.39 µM (≈ 0.323 µg/mL) |  | 0.2 µM (≈ 0.166 µg/mL) | 88.3 ± 15.2 µM | 0.1 µM (≈ 0.0828 µg/mL) |  |  |  |  | 0.2 µM (≈ 0.166 µg/mL)
6 | Cc1ccc(NC(=O)N[C@@H](Cc2ccccc2)C(=O)N[C@H]2COC(=O)[C@@H]3C[C@@H](C)CN3C(=O)[C@H](C)NC(=O)[C@@H]3CCCCN3C(=O)[C@@H]3CCCN3C2=O)cc1C [Compound 206, (S)—N-((2R,6S,8aS,14aS,20S,23aS)-2,6-dimethyl-5,8,14,19,23-pentaoxooctadecahydro-1H,5H,14H,19H-pyrido[2,1-i]dipyrrolo[2,1-c:2′,1′-l][1]oxa[4,7,10,13]tetraazacyclohexadecin-20-yl)-2-(3-(3,4-dimethylphenyl)ureido)-3-phenylpropanamide] | 0.39 µM (≈ 0.301 µg/mL) |  |  |  |  | < 0.2 µM | 0.39 µM (≈ 0.301 µg/mL) | 74 ± 7.7 µM | < 0.2 µM | 
7 | Cc1ccc(NC(=O)N[C@@H](Cc2cc(F)cc(F)c2)C(=O)N[C@H]2COC(=O)[C@@H]3C[C@@H](C)CN3C(=O)[C@H](C)NC(=O)[C@@H]3CCCCN3C(=O)[C@@H]3CCCN3C2=O)cc1C [Compound 207, (S)-3-(3,5-difluorophenyl)-N-((2R,6S,8aS,14aS,20S,23aS)-2,6-dimethyl-5,8,14,19,23-pentaoxooctadecahydro-1H,5H,14H,19H-pyrido[2,1-i]dipyrrolo[2,1-c:2′,1′-l][1]oxa[4,7,10,13]tetraazacyclohexadecin-20-yl)-2-(3-(3,4-dimethylphenyl)ureido)propanamide] | < 0.2 µM |  |  |  |  | < 0.2 µM | < 0.2 µM | 31.1 ± 5.6 µM | < 0.2 µM | 
8 | Cc1ccc(NC(=O)N[C@@H](Cc2cc(F)cc(F)c2)C(=O)N[C@@H]2C(=O)N3CCC[C@H]3C(=O)N3CCOC[C@H]3C(=O)N[C@@H](C)C(=O)N3C[C@H](C)C[C@H]3C(=O)O[C@H]2C)cc1 [Compound 210, (S)-3-(3,5-difluorophenyl)-2-(3-(p-tolyl)ureido)-N-((6aS,12S,13S,15aS,17R,21S,23aS)-13,17,21-trimethyl-6,11,15,20,23-pentaoxooctadecahydro-6H,11H,15H-[1,4]oxazino[3,4-i]dipyrrolo[2,1-c:2′,1′-l][1]oxa[4,7,10,13]tetraazacyclohexadecin-12-yl)propanamide] ({NH(4-Me-phenyl)-CO}-[Phe(3,5-F2)][aThr]P[Morpholine(3S-CO)]A[Pro(4R-Me)]; ester 2-C) | 0.003 µM (≈ 0.00243 µg/mL) |  |  |  |  | 0.02 µM (≈ 0.0162 µg/mL) | 0.0002 µM (≈ 0.000162 µg/mL) | 5.82 ± 0.39 µM | 0.02 µM (≈ 0.0162 µg/mL) | 
9 | C[C@@H]1NC(=O)[C@H](C)N(C)C(=O)[C@@H]2CCCN2C(=O)[C@@H](NC(=O)[C@H](Cc2ccccc2)NC(=O)Nc2ccc(OC(F)(F)F)cc2)COC(=O)C2CCCN2C1=O (stereo partly drawn) [Compound 213, (2S)-3-phenyl-2-(3-(4-(trifluoromethoxy)phenyl)ureido)-N-((6S,9S,11aS,17S)-6,9,10-trimethyl-5,8,11,16,20-pentaoxohexadecahydro-1H,5H,16H-dipyrrolo[2,1-c:2′,1′-l][1]oxa[4,7,10,13]tetraazacyclohexadecin-17-yl)propanamide] ({NH(4-OCF3-phenyl)-CO}-FSP[NMeA]A[ξP]; ester 2-C) | 3.12 µM (≈ 2.46 µg/mL) | < 0.2 µM | 0.78 µM (≈ 0.614 µg/mL) | 51.8 ± 1 µM | 0.39 µM (≈ 0.307 µg/mL) |  |  |  |  | 
10 | Cc1ccc(NC(=O)N[C@@H](Cc2cc(F)cc(F)c2)C(=O)N[C@@H]2C(=O)N3C[C@H](O)C[C@H]3C(=O)N(C)[C@@H](C)C(=O)N[C@@H](C)C(=O)N3C[C@@H](C)C[C@H]3C(=O)O[C@H]2C)cc1 [Compound 214, (S)-3-(3,5-difluorophenyl)-N-((2S,6S,9S,11aS,13R,17S,18S,20aS)-13-hydroxy-2,6,9,10,18-pentamethyl-5,8,11,16,20-pentaoxohexadecahydro-1H,5H,16H-dipyrrolo[2,1-c:2′,1′-l][1]oxa[4,7,10,13]tetraazacyclohexadecin-17-yl)-2-(3-(p-tolyl)ureido)propanamide] ({NH(4-Me-phenyl)-CO}-[Phe(3,5-F2)][aThr][Hyp][NMeA]A[Pro(4S-Me)]; ester 2-C) | 0.391 µM (≈ 0.312 µg/mL) |  |  |  |  | 0.391 µM (≈ 0.312 µg/mL) | 0.391 µM (≈ 0.312 µg/mL) | > 100 µM | 0.781 µM (≈ 0.623 µg/mL) | 
